Results on 1 compound are retold here after PMC5464333, “The binding orientations of structurally-related ligands can differ; A cautionary note” (Neuropharmacology, 2017).

One experiment concerns the target AChBP. As to conditions: AChBP used for co-crystallisation; ref Hibbs et al., 2009; read-out: affinity; cited from earlier work.
The target in another experiment is α7 nACh receptor (UniProt P22770+P23979, M226I/T225I). The experiment in a line: Competition binding with [3H]epibatidine at α7 nACh receptors. Also on record: a chimaera of the chick α7 nACh extracellular domain fused to the 5-HT3 transmembrane/intracellular domains; expressed in transfected cells; host or cells: HEK293 cells, transient transfection (pcDNA3.1, PEI); species or system chick. The method, then:
Human 5-HT3A subunit cDNA (Accession: P46098, kindly provided by J. […] Cells were transiently transfected with either of these cDNA constructs using polyethyleneimine (PEI: 25 kDa, linear, powder, Polysciences Inc., Eppelheim, Germany). 30 μl of PEI (1 mg ml^−1), 5 μg cDNA and 1 ml DMEM were incubated for 10 min at room temperature, added drop wise to a 90 mm plate of 70–80% conﬂuent HEK293 cells, and incubated for 2–3 days before use. […] Non-specific binding was determined with 30 μM (-)/-nicotine. Equilibrium reactions were incubated on ice for at least 1 h and bound radioligand measured using the same method as described above.

The target of experiment [1] is T1, 5-HT3A receptor wild type (Homo sapiens, UniProt P46098).
T1 construct: expressed in transfected cells; host or cells: HEK293, transient, pcDNA3.1
T1 sequence (P46098 24-478): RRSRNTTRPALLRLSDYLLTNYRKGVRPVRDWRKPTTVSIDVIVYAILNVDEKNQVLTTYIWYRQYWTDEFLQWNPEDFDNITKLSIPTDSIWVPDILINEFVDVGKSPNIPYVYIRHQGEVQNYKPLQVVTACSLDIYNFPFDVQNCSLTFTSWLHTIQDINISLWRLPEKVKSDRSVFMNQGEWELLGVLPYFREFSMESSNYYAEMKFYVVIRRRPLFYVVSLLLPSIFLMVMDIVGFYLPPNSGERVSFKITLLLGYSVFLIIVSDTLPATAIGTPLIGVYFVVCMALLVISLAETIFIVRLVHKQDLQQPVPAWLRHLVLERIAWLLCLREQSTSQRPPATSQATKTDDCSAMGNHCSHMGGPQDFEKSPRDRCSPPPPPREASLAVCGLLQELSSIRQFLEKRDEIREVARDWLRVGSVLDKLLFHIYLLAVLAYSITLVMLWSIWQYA
As to the kind of experiment: Saturation radioligand binding, wild type 5-HT3A receptor in HEK293. As to conditions: wild type 5-HT3 receptors. On the procedure: (§1) Human 5-HT3A subunit cDNA (Accession: P46098, kindly provided by J. Peters, Dundee University, UK) was cloned into pcDNA3.1 for expression in HEK293 cells. […] Cells were transiently transfected with either of these cDNA constructs using polyethyleneimine (PEI: 25 kDa, linear, powder, Polysciences Inc., Eppelheim, Germany). 30 μl of PEI (1 mg ml^−1), 5 μg cDNA and 1 ml DMEM were incubated for 10 min at room temperature, added drop wise to a 90 mm plate of 70–80% conﬂuent HEK293 cells, and incubated for 2–3 days before use.
Transfected HEK 293 cells were scraped into 0.6 ml of ice-cold 10 mM HEPES buffer (pH 7.4) and frozen. After thawing, they were washed with HEPES buffer, homogenised by trituration through a 25 gauge (0.5 mm) needle, and 50 μg of cell suspension incubated in 0.5 ml HEPES buffer containing different concentrations of radioligand. […] Equilibrium reactions were incubated on ice for at least 1 h and terminated by vacuum filtration onto Whatman GF/B filters wetted with 0.3% polyethyleneimine, followed by two rapid washes with 2.5 ml ice cold buffer. Radioactivity was measured by scintillation in Ultima Gold XR (Perkin Elmer, Waltham, MA) using a Tri-Carb 2100 TR (PerkinElmer) scintillation counter. Final counts were monitored to ensure that binding never exceeded 10% of the added concentrations of radioligands.
(§2) All data were analysed using GraphPad Prism v5. […]

Experiment [2] addresses T2, 5-HT3A receptor L126C mutant (Homo sapiens, UniProt P46098, L121C).
T2 construct: expressed in transfected cells; host or cells: HEK293, transient, pcDNA3.1
T2 sequence (P46098 24-478 L121C): T1 sequence (P46098 24-478) with L98C
The experiment in a line: Saturation radioligand binding, 5-HT3A L126C mutant. As to conditions: L126C versus wild type. The method, then: Mutagenesis was performed using the QuikChange method (Agilent Technologies Inc., California, USA). Cysteine residues were substituted for amino acids throughout each of the binding loops A - E (Fig. 1). To facilitate comparisons with previous work, we have used the numbering of the equivalent residues in the mouse 5-HT3A subunit (Q6J1J7).
as §1
Transfected HEK 293 cells were scraped into 0.6 ml of ice-cold 10 mM HEPES buffer (pH 7.4) and frozen. […] Radioactivity was measured by scintillation in Ultima Gold XR (Perkin Elmer, Waltham, MA) using a Tri-Carb 2100 TR (PerkinElmer) scintillation counter. Final counts were monitored to ensure that binding never exceeded 10% of the added concentrations of radioligands.
as §2

Broadly, the Ki is a measure of affinity in units of concentration, obtained from inhibition or displacement.

Each structure is given as a SMILES string. Changes are numbered by the printed parent chain.

Chain of α7 nACh receptor (P22770+P23979 fused P22770:T225I/P22770:M226I): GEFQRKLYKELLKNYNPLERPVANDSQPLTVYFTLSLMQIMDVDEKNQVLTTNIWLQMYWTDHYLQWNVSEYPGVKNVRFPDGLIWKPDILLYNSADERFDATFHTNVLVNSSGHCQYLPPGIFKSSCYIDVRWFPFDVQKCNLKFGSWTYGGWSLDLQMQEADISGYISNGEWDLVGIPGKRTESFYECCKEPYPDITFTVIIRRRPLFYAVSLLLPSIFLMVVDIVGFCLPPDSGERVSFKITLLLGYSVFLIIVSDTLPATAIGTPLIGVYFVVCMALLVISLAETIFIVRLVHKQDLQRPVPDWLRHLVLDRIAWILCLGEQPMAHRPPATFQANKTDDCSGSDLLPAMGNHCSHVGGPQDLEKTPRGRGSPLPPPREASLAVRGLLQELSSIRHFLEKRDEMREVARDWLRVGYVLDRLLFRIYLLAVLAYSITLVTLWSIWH

Regarding `CN1[C@@H]2CC[C@H]1C[C@@H](OC(=O)c1c[nH]c3ccccc13)C2` [tropisetron, Tropisetron], the Kd on AChBP was 500 nM. Also, the “difference in affinity at 5-HT3 versus α7 nACh receptors” value at α7 nACh receptor (5-HT3 versus α7 nACh) is given as above 1000 fold. Moreover, the affinity on α7 nACh receptor (competition with [3H]epibatidine) corresponds to a Ki of 1580 ± 840 nM. For the same compound, the “Non-specific binding, of total” value in experiment [1] worked out at 30.3 ± 1.8%. The change in affinity in experiment [2] is listed as 2.5 fold.
